One substance from patent publication US6482804B1, “Compositions and methods for delivery of genetic material” (Wyeth, priority 1997, dated 2002) can be followed below.

The data set can be described thus: Scanning and transmission electron microscopy (SEM/TEM) of surfactant:DNA complexes. The conditions noted are these: aqueous formulations. The format is physicochemical. The method, then: Scanning electron microscopy (SEM) and transmission electron microscopy (TEM) were employed to visualize the resulting complexes formed by the benzylammonium-containing surfactant and polynucleic acid compositions of this invention.
Each formulation containing 8.71% sucrose w/v and 5 mM phosphate buffer at pH6.7±0.5.
ii. […] However, upon addition of DNA, vesicular complexes are formed, when observed by SEM.
iii. […] Similar particle distribution was found at both concentrations of DNA, but in larger numbers with higher DNA concentrations. Larger particles in higher DNA concentrations appear to have derived from the fusion of several 50 nm particles. Formation of larger particles was dependent on the concentration of DNA in the formulation. These particles were visualized by shadow casting in SEM analysis using carbon, and were visible by short (10 second) exposure to the contrasting agent uranyl acetate in TEM analysis. The TEMs show membranous structures typical of liposomes described in literature.
As controls, SEM of DNA alone and benzalkonium chloride alone in aqueous solutions were performed. Vesicular structures are found only when aqueous solutions of DNA and benzalkonium chloride are mixed. TEMs show structures that are vesicular and some are multilamellar. Membranous structures found in these TEMs are consistent with the formation of lamellar vesicular complexes in liposomes.

Regarding benzalkonium chloride, the “structures seen by SEM/TEM” value is reported as “does not form vesicular complexes”.
